# Experimental data: US20130280259A1, “USE OF ANTIBODIES AGAINST NK1, NK2 AND/OR NK3 RECEPTORS IN CANCER TREATMENT” (SERVICIO ANDALUZ DE SALUD, priority 2010, published 2013)
# Assays:
# [1] = tested on: human breast cancer cells; details: Singh D et al., 2000; Bigioni M. et al., 2005; cited from earlier work
# [2] = tested on: human polymorphonuclear blood cells; assay: Immunohistochemistry of TGF-beta and NF-kB in polymorphonuclear blood cells; format: cell-based; details: incubated with PHF; Substance P (1 μM) alone; 48 hours
# Excerpt: (§1) Heparinised blood from healthy donors was centrifuged, separating the different components thereof. Red blood cells remain in the bottom of the tube. Above them, there is a small whitish layer formed by white blood cells and above, in the upper part of the tube, blood plasma. The white blood cell layer was distributed in a culture plate of 24 wells, adding to each of them the same concentration of blood plasma supplemented with 1% of antibiotics-antimicotics (Invitrogen). About 1000 cells (PHF) from the skin dermis, obtained as described above, were added to each well.
# (§2) To assess immunostaining, six serial sections were made of each block placed over slides for performing the immunohistochemistry technique for each marker. Therefore, the immunohistochemical assay was performed six times for each marker in each case. In each of the six sections, cell count was performed in 20 fields of high magnification (400×) using a microscope of Olympus brand (model CX31). In each field, the total cell number and the number of cells with immunostaining were counted, subsequently measuring the percentage of cells with this immunostaining. […]
# (§3) The modification of the peritumoural microenvironment by treatment with anti-NK1, NK2 and/or NK3 antibodies has also been analysed determining the involvement of mononuclear and polymorphonuclear blood cells in this tumoural microenvironment. […]
# [3] = tested on: primary human fibroblasts (PHF); assay: Immunohistochemistry of tumour microenvironment markers in primary human fibroblasts; format: cell-based
# Description: A sample of each of the cultures of the cell lines was centrifuged (5 minutes at 1,500 rpm) and the pellet obtained was dehydrated by treatment at growing concentrations of ethanol and finally in xylol. Then these dehydrated samples were included in paraffin creating a block of cells. These paraffin blocks were cut in a microtome at a thickness of 5 micra and deparaffinised by sinking in xylol, to be subsequently hydrated through a number of solutions containing decreasing concentrations of ethanol and be finally sank in water. Then, these samples were subject to treatment in a pressure cooker in citrate buffer 10× at pH 6.0, to obtain a higher exposure of antigens. Subsequently, the samples were cooled at room temperature for 10 minutes. The endogenous peroxidase activity was blocked with 3% hydrogen peroxide for 30 minutes at room temperature. After washing the samples with 0.05 M of Tris buffer, they were incubated with swine non-immune serum at 10% for 30 minutes at room temperature. […]
# PHF were obtained and purified from samples obtained from the skin dermis as described in De Bari et al. (De Bari et al., 2001). In brief, small pieces of skin dermis were digested in a hyaluronidase solution (Sigma-Aldrich, St. Louis, Mo., US) at a concentration of 1 mg/mL for 15 minutes at 37° C. and subsequently treated with 6 mg/mL of type IV collagenase (Invitrogen) for 2 hours at 37° C. Then the cells were washed, resuspended in DMEM culture medium with a high concentration of glucose (Dulbecco's Modified Eagle's Medium, Invitrogen) supplemented with 1% of antibiotics-antimicotics (Invitrogen) and with 1% of sodium pyruvate (Invitrogen), and sown in 6-well culture plaques at a concentration of 10,000 cells per square centimetre. When the cells reached confluence, the adherent cells were separated using 0.5% sterile trypsin (Invitrogen) and were used between runs 3 and 9. For stimulation of substance P and exposure to anti-NK1, anti-NK2 and anti-NK3 antibodies, PHF were sown in 24-well plaques at a concentration of 25,000 cells per well.
# For the purpose of analysing the expression of these cell markers in PHF cultures in the presence of the NK1, NK2 and NK3 receptor agonist and in the presence of anti-NK1, NK2 or NK3 antibodies, these cells were cultured in the presence of substance P (NK1, NK2 and NK3 receptor agonist) at a concentration of 1 μM (product no. S6883; Sigma-Aldrich). In other wells and simultaneously these cells were cultured with substance P at the same concentration and simultaneously together with anti-NK1, anti-NK2 or anti-NK3 antibodies (Sigma-Aldrich) at a 1/100 concentration. After 48 hours of culture, the cells were recollected and cell blocks were built for immunohistochemistry assays, as explained in example 1. In the immunohistochemistry assays, the expression of the following markers was assayed: TGF-alpha (SAB4502953), TGF-beta 1 (SAB4502954), TGF-beta 2 (SAB4502956), TGF-beta 3 (SAB4502957), SPARC(HPA002989) MMP-3 (HPA007875); MMP-7 (SAB4501894), MMP-9 (SAB4501896), MMP-11 (SAB4501898), MMP-13 (SAB4501900) and MMP-14 (SAB4501901), by specific antibodies against them. For performing these immunohistochemistry assays, all antibodies were mouse polyclonal antibodies obtained from Sigma Aldrich, used at a 1/1000 concentration. The immunohistochemistry techniques were performed as described in Example 1. The results are summarised in Table 2, that gives the type of marker and the mean percentage of cells with immunostaining for this marker.
# as §2, with “CX31).” for “CX31). In each field, the total cell number and the number of cells with immunostaining were counted, subsequently measuring the percentage of cells with this immunostaining.”
# [4] = tested on: human mononuclear blood cells; assay: Immunohistochemistry of TGF-beta and NF-kB in mononuclear blood cells; format: cell-based; details: incubated with PHF; Substance P (1 μM) alone; 48 hours
# Excerpt: as §1, §2, §3
# [5] = target: NK2 receptor (human) (UniProt P21452); assay: cell-based or functional assay
# [6] = PHF, Substance P (1 μM) alone, 48 hours
# Sequence of UniProt P21452 (P21452 whole entry): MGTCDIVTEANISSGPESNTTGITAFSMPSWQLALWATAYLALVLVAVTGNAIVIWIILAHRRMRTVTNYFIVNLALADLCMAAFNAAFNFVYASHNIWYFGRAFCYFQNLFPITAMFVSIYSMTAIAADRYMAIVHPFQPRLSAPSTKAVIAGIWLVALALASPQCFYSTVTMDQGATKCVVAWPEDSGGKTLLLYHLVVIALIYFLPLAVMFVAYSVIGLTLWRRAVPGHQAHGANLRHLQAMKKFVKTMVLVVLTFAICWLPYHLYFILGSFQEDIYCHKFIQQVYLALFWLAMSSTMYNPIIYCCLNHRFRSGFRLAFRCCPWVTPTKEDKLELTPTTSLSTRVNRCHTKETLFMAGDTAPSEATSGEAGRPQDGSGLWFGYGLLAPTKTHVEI
compound,measurement,setting,value
Cc1ccc(CC(=O)N(C)[C@H](Cc2ccc3ccccc3c2)C(=O)N[C@@H]2CCCC[C@@H]2NC(=O)c2c[nH]c3ccccc23)cc1 [MEN 11467],Blocking cell proliferation,[1],efficacy in blocking cell proliferation
Substance P,Percentage of polymorphonuclear cells with expression for NF-kB,[2],17.5%
same,Percentage of polymorphonuclear cells with expression for TGF-beta,[2],36.8%
same,"Immunostaining for the markers tested (TGF-alpha, TGF-beta 1-3, SPARC, MMPs)",[3]; PHF cell cultures treated only with substance P,presence of all markers tested
same,Percentage of cells with expression for MMP-3,[3]; [6],33.9%
same,Percentage of cells with expression for MMP-7,[3]; [6],46.2%
same,Percentage of cells with expression for MMP-9,[3]; [6],35.5%
same,Percentage of cells with expression for MMP-11,[3]; [6],7.8%
same,Percentage of cells with expression for MMP-13,[3]; [6],17.1%
same,Percentage of cells with expression for MMP-14,[3]; [6],47.3%
same,Percentage of cells with expression for SPARC,[3]; [6],16%
same,Percentage of cells with expression for TGF-alpha,[3]; [6],16.5%
same,Percentage of cells with expression for TGF-beta 1,[3]; [6],18.4%
same,Percentage of cells with expression for TGF-beta 2,[3]; [6],24.6%
same,Percentage of cells with expression for TGF-beta 3,[3]; [6],23.1%
same,Percentage of mononuclear cells with expression for NF-kB,[4],25.7%
same,Percentage of mononuclear cells with expression for TGF-beta,[4],16.4%
"anti-NK2 antibody (Sigma-Aldrich, product number HPA012084)",% of fibroblast cells with expression for MMP-3; anti-NK2 (1/100) and Substance P (1 µM),[5],0%
same,% of fibroblast cells with expression for MMP-7; anti-NK2 (1/100) and Substance P (1 µM),[5],0%
same,% of fibroblast cells with expression for MMP-9; anti-NK2 (1/100) and Substance P (1 µM),[5],0%
same,% of fibroblast cells with expression for MMP-11; anti-NK2 (1/100) and Substance P (1 µM),[5],0%
same,% of fibroblast cells with expression for MMP-13; anti-NK2 (1/100) and Substance P (1 µM),[5],0%
same,% of fibroblast cells with expression for MMP-14; anti-NK2 (1/100) and Substance P (1 µM),[5],0%
same,% of fibroblast cells with expression for SPARC; anti-NK2 (1/100) and Substance P (1 µM),[5],0%
same,% of fibroblast cells with expression for TGF-alpha; anti-NK2 (1/100) and Substance P (1 µM),[5],0%
same,% of fibroblast cells with expression for TGF-beta 1; anti-NK2 (1/100) and Substance P (1 µM),[5],0%
same,% of fibroblast cells with expression for TGF-beta 2; anti-NK2 (1/100) and Substance P (1 µM),[5],0%
same,% of fibroblast cells with expression for TGF-beta 3; anti-NK2 (1/100) and Substance P (1 µM),[5],0%
same,% of mononuclear cells with expression for NF-kB; anti-NK2 (1/100) and Substance P (1 µM),[5],0%
same,% of mononuclear cells with expression for TGF-beta; anti-NK2 (1/100) and Substance P (1 µM),[5],0%
same,% of polymorphonuclear cells with expression for NF-kB; anti-NK2 (1/100),[5],0%
same,% of polymorphonuclear cells with expression for TGF-beta; anti-NK2 (1/100),[5],0%
CC(=O)NC1(c2ccccc2)CCN(CC[C@H](CN(C)C(=O)c2ccccc2)c2ccc(Cl)c(Cl)c2)CC1 [SR 48968],Blocking cell proliferation,[1],efficacy in blocking cell proliferation
